Measured values published in patent US10076509B2, “Nested particles and the use thereof for coordinated delvery of active agents” (Board of Regents, the University of Texas System, priority 2015, dated 2018).

Tests used:
[1] = Release kinetics from nested nanoparticles (fluorophore release, zeta potential over time); format: physicochemical; settings: PBS pH 7.4, 37° C.
Description: FIGS. 4A-C. Examination of nested nanoparticle release kinetics. 4A. […] 4B. […] 4C.
Fluorophore release was determined according to a previously published procedure (Woodrow et al., 2009). Absorbance of bodipy and rhodamine were detected using the Synergy H4 Hybrid Reader as described above. In a separate study, nanoparticles were centrifuged at predetermined timepoints, resuspended in water, and the surface charge determined via zeta potential analysis, as described above.

[2] = Finite Element modeling of release kinetics from nested nanoparticles
From the text: Due to the fact that the physico-chemical properties of the core and shell, as well as bodipy and rhodamine, are different, a computational method accounting for diffusivities and molecule partitioning was used to analyze release kinetics from nested nanoparticles. Use of the model helped determine that sequential release may be achieved and controlled not only by different diffusion properties in different phases, but also partitioning. […] The model estimated experimental release curves by using partitioning coefficients of 5.0×109 and 2.2×1011 for bodipy and rhodamine, respectively (FIG. 4a). The half-time of release of the maximum releasable material was estimated to be 15 h for the shell and 46 h for the core. The diffusivity of rhodamine inside the PLGA nanoparticle matrix was estimated to be 4×10^−10 cm2/s, which was approximately 104 times lower than that in water, while that of bodipy in the shell was reduced by only 5 times compared to that in water. […] This is illustrated in the distinct phases of dominant fluxes over time (FIG. 4b).
A Finite Element (FE) method was used to model drug diffusion. The model included partitioning conditions at the surfaces, in this case between the core and the surrounding fluid. Thus, aside from the incremental-iterative system of mass balance equations (Kojic et al., 2008; Ziemys et al., 2011; Kojic et al., 2011):
the partitioning condition was included ΔNs/ΔNf=ΔCs/Δf=P Here, M and K are element mass and diffusion matrices, ΔC represents nodal concentration increments, Q^ext and Q^tnt are external and internal nodal mass fluxes; ΔNs and ΔNf are number of molecules of solid and fluid (per FE node) passing during time step Δt, and ΔCs and ΔCf are the corresponding concentration changes at boundary nodes with partitioning property; P is partitioning coefficient; and i specifies the equilibrium iteration counter. The important material parameter in the above balance equation is the diffusion coefficient D entering the diffusion matrix K:
[formula] where NI, NJ are interpolation functions and V is element volume. […]

[3] = test system: MCF-7 breast tumor xenografts; test: In vivo accumulation and release of nested nanoparticles in breast tumors
Description: MCF-7 cells (5×10^6) were inoculated in the mammary fat pads of 4- to 6-week-old female nu/nu mice. Mice were implanted with 17β-estradiol pellets subcutaneously. Nanoparticles were administered intravenously and at predetermined timepoints, the mouse was sacrificed and the tumor harvested. Tumor tissues were frozen and sectioned into 7 μm tissue slices using an HM 550 Cryostat (Thermo Fischer Scientific, Waltham, Mass., USA). Tissues were fixed and stained with 4% methanol-free paraformaldehyde for 20 min. Following fixation, samples were washed with PBS. Slides were mounted and tissues imaged using confocal microscopy as previously described. The presence of fluorescence over time, surface intensity plots, and area fraction of the tissue sections were examined using Nikon Elements v4.1 software. For area fraction analysis, the fluorescence emitted by bodipy and rhodamine was obtained from 4 sections from different regions of the tumor (n=3). A ratiometric percentage of area fractions of both fluorophores were extracted from the total area of the image.

[4] = Release of rapamycin and paclitaxel from nested nanoparticles; format: physicochemical; settings: rapamycin in outer shell, paclitaxel in polymeric core
From the text: FIG. 14. Nested nanoparticles containing both rapamycin and paclitaxel release drug in a time and sequential fashion.

[5] = model parameter; from literature for rhodamine, approximated from literature for bodipy; cited from earlier work
[6] = initial timepoints leading up to 3 h, bodipy in QAβ-CD shell, rhodamine in PLGA core

Compound | Time after which release plateaus [1] [h] | Cumulative release from nested nanoparticles ([1]; by 6 h) [%] | Cumulative release from nested nanoparticles ([1]; by 12 h) [%] | Cumulative release from nested nanoparticles [1, 6] [%] | Reduction of diffusivity inside material compared to that in water ([2]; rhodamine in PLGA matrix, bodipy in shell) [times] | Area fraction of fluorophore in tumor ([3]; mouse, in vivo, iv) | Area fraction: amount of fluorophore in tumor ([3]; mouse, in vivo, iv) | Fluorophore in tumor tissue ([3]; mouse, in vivo, iv) | Release from nested nanoparticles [4] | Cumulative release from nested nanoparticles ([1]; "by this same timepoint" (12 h or 48 h, not clear)) [%] | Cumulative release from nested nanoparticles ([1]; in 96 h) [%] | Time after which rhodamine flux overtook the flux of bodipy ([2]; fluxes of release from nested nanoparticles) [h] | Diffusivity inside the PLGA nanoparticle matrix ([2]; model estimate) | Area fraction of fluorophore in tumor ([3]; 3 h after intravenous nested nanoparticles) | Area fraction: amount of fluorophore in tumor ([3]; 96 h after intravenous nested nanoparticles) | Dwater (diffusivity in water) [5]
O=C(COc1ccc(/C=C/C2=[N+]3C(=Cc4ccc(-c5cccs5)n4[B-]3(F)F)C=C2)cc1)NCCCCCC(=O)ON1C(=O)CCC1=O [bodipy] | > 48 | 34 | 50 | 7 | 5 | ratiometrically similar amounts | decreased significantly | marked decrease | – | – | – | – | – | – | – | –
CC(=O)O[C@H]1C(=O)[C@@]2(C)[C@H]([C@H](OC(=O)c3ccccc3)[C@]3(O)C[C@H](OC(=O)[C@H](O)[C@@H](NC(=O)c4ccccc4)c4ccccc4)C(C)=C1C3(C)C)[C@]1(OC(C)=O)CO[C@@H]1C[C@@H]2O [paclitaxel] | – | – | – | – | – | – | – | – | slow and prolonged release | – | – | – | – | – | – | –
Rhodamine | – | – | – | 3 | – | – | – | – | – | ~6 | 34 | > 24 | 4×10^−10 cm2/s | ratiometrically similar amounts | increase | 4.10^−6 cm^2/s
